Measurements reported in patent US12329137B2, “Method of preparing mouse model of herpes” (AJOU UNIVERSITY INDUSTRY-ACADEMIC COOPERATION FOUNDATION, priority 2019, dated 2025).

Experiments:
Assay type in all cases: in vivo, ICR mice
[1] = test system: herpes simplex virus type 1 (HSV-1); test: Prevalence rate of herpes in mice given HSV-1 with hydrocortisone
Protocol: (§1) The ear inner conch of a large number of 5-week-old ICR mice bred and reared in SPF (specific pathogen free) conditions was injured by being scratched with an injection needle at a strength sufficient to prevent blood from bleeding out, then the injured site was first inoculated with 20 μL of HSV-1 (herpes simplex virus type 1, F strain) solution (1×10^6 pfu/mL), and the mice were reared for 10 days. Next, the same injured site was secondarily inoculated with the same dose of HSV-1. One time a day for 5 days from the day after the first inoculation had been performed and one time a day for 5 days from the day after the second inoculation had been performed, hydrocortisone was intraperitoneally injected into each mouse at 50 μg/day to 500 μg/day. Thereafter, the faces of the mice were observed, mice having blisters formed around the lips were selected, and these were used as mouse models of herpes (FIG. 1).

[2] = test system: DX5+ immune-related cells; test: Flow cytometry frequency of DX5+ cells in peripheral blood leukocytes; details: HSV-1 inoculated mice
Protocol: as §1
(§2) Each mouse model of herpes was prepared by way of the method of Example 1 except that hydrocortisone was administered at about 50 μg/day, 150 μg/day, or 500 μg/day. Thereafter, peripheral blood was collected from each of the mouse models of herpes, peripheral blood leukocytes was isolated and obtained from the collected blood, and the frequencies of immune-related cells (CD4+, CD8+, and DX5+) contained in the peripheral blood leukocytes were measured and comparatively analyzed via flow cytometry (Tables 1 and 2). In this case, mouse models of herpes prepared without administration of hydrocortisone were used as a control group.

[3] = test system: CD8+ immune-related cells; test: Flow cytometry frequency of CD8+ cells in peripheral blood leukocytes; details: HSV-1 inoculated mice
Protocol: as §1, §2

[4] = test system: CD4+ immune-related cells; test: Flow cytometry frequency of CD4+ cells in peripheral blood leukocytes; details: HSV-1 inoculated mice
Protocol: as §1, §2

[5] = hydrocortisone 50 μg/day intraperitoneal
[6] = hydrocortisone 150 μg/day intraperitoneal
[7] = hydrocortisone 500 μg/day intraperitoneal

With `C[C@]12CCC(=O)C=C1CC[C@@H]1[C@@H]2[C@@H](O)C[C@@]2(C)[C@H]1CC[C@]2(O)C(=O)CO` [Hydrocortisone, hydrocortisone] the “Prevalence rate of herpes (symptomatic mice/total mice)” value ([1]; HSV-1 + hydrocortisone at 150 μg/day in combination) was 14.7% (14/95), the “prevalence rate of herpes relative to mice administered with HSV-1 singly” value ([1]; HSV-1 + hydrocortisone at 150 μg/day in combination vs HSV-1 singly) was “about 2.5 times” and the “expression frequency of DX5+ cells” value [2, 5] was 4.4 ± 2.4%. The “expression frequency of DX5+ cells” value [2, 6] was 2.89 ± 1.9%, the “expression frequency of DX5+ cells” value [2, 7] was 2.5 ± 1.9% and the “expression frequency of CD8+ cells” value [3, 5] was 6.44 ± 2.6%. For the same compound, the “expression frequency of CD8+ cells” value [3, 6] was 4.78 ± 1.7%, the “expression frequency of CD8+ cells” value [3, 7] was 4.2 ± 1.7% and the “expression frequency of CD4+ cells” value [4, 5] was 15.8 ± 8.8%. The “expression frequency of CD4+ cells” value [4, 6] was 12.4 ± 7.8% and the “expression frequency of CD4+ cells” value [4, 7] was 12.3 ± 4.7%.
